Series [1] concerns the target Calcium/calmodulin-dependent protein kinase type II subunit alpha (Homo sapiens, UniProt Q9UQM7). As to the kind of experiment: Inhibition of [3H]NCS-382 binding to CaMK2alpha (unknown origin).
Series [2] has as its target Calcium/calmodulin-dependent protein kinase type II subunit alpha (Rattus norvegicus) (UniProt P11275). The series can be described thus: Inhibition of [3H]NCS-382 binding to CaMK2alpha in rat brain cerebral cortex membrane homogenates at 100 uM measured after 60 mins by TopCount scintillation counting method relative to control. It counts as cell membranes.
The target of series [3] is T1, Calcium/calmodulin-dependent protein kinase type II subunit alpha (Rattus norvegicus, UniProt P11275). The series can be described thus: Displacement of [3H]NCS-382 from CaMK2alpha in rat brain cerebral cortex membrane homogenates assessed as inhibition constant measured after 60 mins by TopCount scintillation counting method. The series is classed as cell membranes. A general note: Loss of bound radioactivity is the signal in a displacement assay; it reports binding, not function.
T1 sequence (P11275 whole entry): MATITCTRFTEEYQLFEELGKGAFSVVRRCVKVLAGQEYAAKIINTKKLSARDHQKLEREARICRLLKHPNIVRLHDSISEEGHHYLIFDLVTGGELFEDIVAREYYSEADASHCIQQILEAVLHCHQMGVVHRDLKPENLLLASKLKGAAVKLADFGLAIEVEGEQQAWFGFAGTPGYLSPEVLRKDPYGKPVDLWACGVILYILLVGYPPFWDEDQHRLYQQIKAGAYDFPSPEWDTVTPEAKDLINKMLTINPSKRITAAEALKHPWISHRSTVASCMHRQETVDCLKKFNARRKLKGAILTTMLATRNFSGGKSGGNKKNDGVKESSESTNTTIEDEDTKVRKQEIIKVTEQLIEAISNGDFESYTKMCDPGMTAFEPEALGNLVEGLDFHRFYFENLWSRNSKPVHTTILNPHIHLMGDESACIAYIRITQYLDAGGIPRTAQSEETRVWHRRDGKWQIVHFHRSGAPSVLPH

For series [4], the target named is T1, Calcium/calmodulin-dependent protein kinase type II subunit alpha. As to the kind of experiment: Displacement of [3H]HOCPCA from CaMK2alpha in rat brain cerebral cortex membrane homogenates assessed as inhibition constant measured after 60 mins by TopCount scintillation counting method. It counts as cell membranes.
Series [5] in a line: Ratio of drug concentration in brain to plasma in C57BL/6J mouse at 10 mg/kg , po measured after 30 mins by UPLC based tandem mass spectrometry analysis. Conditions: read-out: BPR. It counts as ADME, organism-based.
A short description of series [6]: Chemical stability of compound in PBS buffer at pH 7.4 assessed as oxidized intermediate formation at 25 to 37 degreeC incubated for 7 days by HPLC based LC-MS analysis. The series is classed as physicochemical. Conditions: pH 7.4, 168 h, time 7 day.
A short description of series [7]: Plasma concentration in C57BL/6J mouse at 10 mg/kg , po measured after 30 mins by UPLC based tandem mass spectrometry analysis. The series is classed as ADME, organism-based.
Series [8] is described as follows: Chemical stability of compound in PBS buffer at pH 7.4 assessed as cyclized intermediate formation at 25 to 37 degreeC incubated for 7 days by HPLC based LC-MS analysis. It counts as physicochemical. Conditions: pH 7.4, 168 h, time 7 day.
The nature of series [9]: Brain concentration in C57BL/6J mouse at 10 mg/kg , po measured after 30 mins by UPLC based tandem mass spectrometry analysis. It counts as ADME, organism-based. Conditions: read-out: Ct.
Series [10] concerns the target T1, Calcium/calmodulin-dependent protein kinase type II subunit alpha. The series can be described thus: Inhibition of [3H]NCS-382 binding to CaMK2alpha in rat cerebrocortical membranes. It counts as cell membranes, Cerebral cortex, Membrane.
Series [11] in a line: Brain concentration in C57BL/6J mouse at 5 mg/kg , sc measured after 30 mins by UPLC based tandem mass spectrometry analysis. The series is classed as ADME, organism-based. Conditions: read-out: Ct.
The nature of series [12]: Ratio of drug concentration in brain to plasma in C57BL/6J mouse at 5 mg/kg , sc measured after 30 mins by UPLC based tandem mass spectrometry analysis. The series is classed as ADME, organism-based. Conditions: read-out: BPR.
In series [13] the test system is BCRP. As to the kind of experiment: Apparent permeability across basolateral to apical side in dog MDCK-II cells expressing BCRP at 3 uM measured after 60 to 90 mins by LC-MS/MS analysis. The series is classed as ADME, cell-based, Canis lupus familiaris. Conditions: time 60-90 min.
Series [14] is described as follows: Plasma concentration in C57BL/6J mouse at 5 mg/kg , sc measured after 30 mins by UPLC based tandem mass spectrometry analysis. It counts as ADME, organism-based.
Series [15] concerns BCRP. The series can be described thus: Apparent permeability across apical to basolateral side in dog MDCK-II cells expressing BCRP at 3 uM measured after 60 to 90 mins by LC-MS/MS analysis. It counts as ADME, cell-based, Canis lupus familiaris. Conditions: time 60-90 min.
Series [16] in a line: Chemical stability of compound in PBS buffer at pH 7.4 assessed as half life at 25 degreeC incubated for 7 days by HPLC based LC-MS analysis. It counts as physicochemical. Conditions: time 7 day.
For series [17], the system named is MDR1 (P-gp). As to the kind of experiment: Apparent permeability across basolateral to apical side in dog MDCKII-MDR1 cells at 3 uM measured after 60 to 90 mins by LC-MS/MS analysis. It counts as ADME, cell-based, Canis lupus familiaris. Conditions: MDCK-MDR1, time 60-90 min.
Series [18] concerns MDR1 (P-gp). As to the kind of experiment: Apparent permeability across apical to basolateral side in dog MDCKII-MDR1 cells at 3 uM measured after 60 to 90 mins by LC-MS/MS analysis. Conditions: MDCK-MDR1, time 60-90 min. The series is classed as ADME, cell-based, Canis lupus familiaris.
A short description of series [19]: Chemical stability of compound in PBS buffer at pH 7.4 assessed as half life at 37 degreeC incubated for 7 days by HPLC based LC-MS analysis. The series is classed as physicochemical. Conditions: time 7 day.
Series [20] relates to MDR1 (P-gp). The series can be described thus: Apparent permeability across apical to basolateral side in dog MDCKII-MDR1 cells at 3 uM preincubated with P-gp inhibitor elacridar for 15 to 30 mins followed by compound addition and measured after 60 to 90 mins by LC-MS/MS analysis. The series is classed as ADME, cell-based, Canis lupus familiaris. Conditions: MDCK-MDR1, with elacridar (P-gp inhibitor; concentration not stated), time 60-90 min.

In series [21] the test system is BCRP. As to the kind of experiment: Apparent permeability across basolateral to apical side in dog MDCK-II cells expressing BCRP at 3 uM preincubated with BCRP inhibitor, Ko 143 for 15 to 30 mins followed by compound addition and measured after 60 to 90 mins by LC-MS/MS analysis. It counts as ADME, cell-based, Canis lupus familiaris. Conditions: with Ko 143 (BCRP inhibitor; concentration not stated), time 60-90 min.

The test system of series [22] is BCRP. The series can be described thus: Apparent permeability across apical to basolateral side in dog MDCK-II cells expressing BCRP at 3 uM preincubated with BCRP inhibitor, Ko 143 for 15 to 30 mins followed by compound addition and measured after 60 to 90 mins by LC-MS/MS analysis. Conditions: with Ko 143 (BCRP inhibitor; concentration not stated), time 60-90 min. It counts as ADME, cell-based, Canis lupus familiaris.

Series [23] deals with MDR1 (P-gp). As to the kind of experiment: Apparent permeability across basolateral to apical side in dog MDCKII-MDR1 cells at 3 uM preincubated with P-gp inhibitor elacridar for 15 to 30 mins followed by compound addition and measured after 60 to 90 mins by LC-MS/MS analysis. Conditions: MDCK-MDR1, with elacridar (P-gp inhibitor; concentration not stated), time 60-90 min. The series is classed as ADME, cell-based, Canis lupus familiaris.

The structures appear in SMILES notation.

Sequence of Calcium/calmodulin-dependent protein kinase type II subunit alpha (Homo sapiens, UniProt Q9UQM7) (Q9UQM7 whole entry): as the sequence (P11275 whole entry) above, with N324S counted along it
Sequence of Calcium/calmodulin-dependent protein kinase type II subunit alpha (Rattus norvegicus) (P11275 whole entry): as the sequence (P11275 whole entry) above

Regarding `O=C(O)Cc1ccc(O)cc1`, in series [1], the Ki (commonly a measure of affinity in units of concentration, obtained from inhibition or displacement) turned out to be 2200 nM.

For `NC(=O)Cc1cc(O)ccc1Oc1ccccc1Cl`, in series [2], the inhibition (as a rule, the share of the control response that was lost under treatment) is less than 50%. Further, the Ki in series [3] is more than 100000 nM.

For `Oc1ccc(Oc2ccccc2Cl)c(-c2nnn[nH]2)c1`, the Ki in [3] turned out to be 25000 nM; in series [4] it was 40000 nM.

With `Oc1ccc(Oc2ccccc2Cl)c(Cc2cc(O)no2)c1`, the Ki in series [3] worked out at 20000 nM.

On to `O=C1Cc2cc(O)ccc2N1c1c(Cl)cccc1Cl`, for which the inhibition in series [2] was less than 50%. For the same compound, the Ki in [3] is more than 100000 nM.

Consider `O=C(O)/C=C/c1ccc(O)cc1` [COUMARIC ACID], for which, in series [1], the Ki is more than 100000 nM.

For `O=C(O)Cc1ccccc1Oc1ccc(O)cc1CC(=O)O`, in series [3], the Ki worked out at 830 nM.

With `O=C(O)Cc1ccc(O)cc1Oc1ccccc1Cl`, in series [5], the Kp at 0.5 h was found to be 0.011. Besides, the Stability result in series [6] and in [8] was “Stable” throughout. For the same compound, the Ki was 27 nM in series [3] and 53 nM in [4]. For the same compound, the results for the concentration at 0.5 h in [7] and in series [9] were 29400 ng/mL and 308 ng/mL, respectively.

Turning to `O=C(O)C(F)(F)c1cc(O)ccc1Oc1ccccc1Cl`, the inhibition constant (Ki) in series [3] was 1200 nM.

Take `O=C(O)Cc1cc(O)ccc1Oc1c(Cl)cccc1Cl`: the Ki in series [3] stood at 70 nM.

For the compound `O=C(O)Cc1ccccc1Nc1c(Cl)cccc1Cl` [DICLOFENAC], the Ki in [3] is 5100 nM.

Take `O=C(O)CCCO` [OXYBATE]: in [1], the Ki is 4300 nM.

Take `O=C(O)Cc1ccccc1O`: in series [10], the IC50 (commonly the midpoint of a concentration-inhibition curve) turned out to be 2100 nM and the Ki was 2000 nM.

`O=C(O)Cc1ccccc1Nc1c(Cl)cc(O)cc1Cl` [4'-HYDROXY-DICLOFENAC]: the inhibitory constant (Ki) in [1] came out at 2100 nM.

As to `O=C(O)Cc1cc(O)ccc1Oc1ccc([N+](=O)[O-])cc1Cl`, the Ki in series [3] came out at 14 nM.

With `O=C(O)/C=C/c1ccccc1` [CINNAMIC ACID], the Ki in series [1] is more than 100000 nM.

For the compound `O=C(O)Cc1ccc(O)cc1Sc1ccccc1`, the Ki in series [3] is 77 nM.

Turning to `O=C(O)Cc1cc(O)ccc1Oc1ccccc1O`, the Ki in series [3] amounted to 33 nM.

Regarding `O=c1[nH]nc(Cc2cc(O)ccc2Oc2ccccc2Cl)[nH]1`, the Ki in [3] was determined as 420 nM.

On to `O=C(O)Cc1ccc(O)cc1Nc1c(Cl)cccc1Cl`, for which the values for the concentration at 0.5 h in [11] and in series [14] were 88 ng/mL and 6790 ng/mL, respectively. In series [12], the Kp at 0.5 h turned out to be 0.013. The Papp B→A (usually how fast a substance crosses the layer from the basolateral side) at 3 µM in the series on BCRP [13] was 19.1 ×10⁻⁶ cm/s; in the series on MDR1 (P-gp) [17], 3.73 ×10⁻⁶ cm/s; in the series on BCRP [21] it was 4.03 ×10⁻⁶ cm/s; with MDR1 (P-gp) [23] it was 2.71 ×10⁻⁶ cm/s. The Papp A→B – broadly, the apparent permeability from the apical to the basolateral side of a cell layer – at 3 µM was 1.25 ×10⁻⁶ cm/s in the series with BCRP [15], 4.66 ×10⁻⁶ cm/s with MDR1 (P-gp) [18], 4.15 ×10⁻⁶ cm/s in the series with MDR1 (P-gp) [20] and 3.05 ×10⁻⁶ cm/s in the series with BCRP [22]. In addition, the results for the half-life in series [16] and in [19] were 10 h and 24 h, respectively.

For `O=C(O)Cc1cccc(O)c1` [3-Hydroxyphenylacetate], in series [10], the IC50 was determined as 130 nM and the Ki was 126 nM.

Take `O=c1[nH]c(Cc2cc(O)ccc2Oc2ccccc2Cl)no1`: in [3], the Ki was determined as 1200 nM.

For the compound `O=C(O)Cc1ccc(O)cc1Oc1ccccc1`, the Ki in [3] is 47 nM.

Turning to `O=C(O)Cc1ccc(O)cc1Cc1ccccc1`, the Ki in series [3] turned out to be 500 nM.

Turning to `O=C(O)Cc1ccc(O)cc1Oc1c(Cl)cccc1Cl`, the Ki in series [3] was 31 nM.

On to `Oc1ccc(Oc2ccccc2Cl)c(Cc2nnn[nH]2)c1`, for which the Kp at 0.5 h in [5] was 0.012. The Ki in series [3] worked out at 70 nM; in series [4] it was 94 nM. The concentration at 0.5 h stood at 1970 ng/mL in series [7] and 22 ng/mL in series [9].
